Numbers after ± are expanded uncertainties. Each block holds one compound with its values, some of them ahead of it.
Experiment: cn = amount concentration of the nth substance listed, in mol/dm3
Details: 313 K, Ring tensiometer

surface tension liquid-gas (c1 = 0.000412): 30.2 ± 0.5 mN/m
Structure (SMILES): CCCCCCCCCCCC(=O)OCC[N+](C)(C)CCC[N+](C)(C)CCOC(=O)CCCCCCCCCCC.[Br-].[Br-] + O

surface tension liquid-gas (c1 = 0.000228): 27.2 ± 0.4 mN/m
Structure (SMILES): CCCCCCCCCCCCOC(=O)C[N+](C)(C)CCC[N+](C)(C)CC(=O)OCCCCCCCCCCCC.[Br-].[Br-] + O

surface tension liquid-gas (c1 = 0.000168): 26.4 ± 0.4 mN/m
Structure (SMILES): CCCCCCCCCCCCOC(=O)C[N+](C)(C)CC[N+](C)(C)CC(=O)OCCCCCCCCCCCC.[Br-].[Br-] + O

From the NIST ThermoML archive (doi:10.1016/j.jct.2013.03.008)
